Source: patent US9884842B2, “Combretastatin analogs” (The Board of Trustees of the University of Arkansas, priority 2013, dated 2018)
Where two headings read alike, the source gives them in different places.

Tests used:
MDA-MB-468 = assay: cells; details: Homo sapiens; for GI50: MDA-MB-468; for CC50: MDA-MB-468, read-out: LC50
SR = assay: NCI growth inhibition and cytotoxicity screen, Leukemia panel; details: Homo sapiens
M14 = assay: NCI growth inhibition and cytotoxicity screen, Melanoma panel; details: Homo sapiens; for GI50: M14; for CC50: M14, read-out: LC50
SK-MEL-5 = assay: as above; details: Homo sapiens; for GI50: SK-MEL-5; for CC50: SK-MEL-5, read-out: LC50
UACC-257 = assay: as above; details: Homo sapiens; for GI50: UACC-257; for CC50: UACC-257, read-out: LC50
UACC-62 = assay: as above; details: Homo sapiens; for GI50: UACC-62; for CC50: UACC-62, read-out: LC50
SF-268 = assay: NCI growth inhibition and cytotoxicity screen, CNS Cancer panel; details: Homo sapiens; for GI50: SF-268; for CC50: SF-268, read-out: LC50
SNB-19 = assay: as above; details: Homo sapiens; for GI50: SNB-19; for CC50: SNB-19, read-out: LC50
SNB-75 = assay: as above; details: Homo sapiens; for GI50: SNB-75; for CC50: SNB-75, read-out: LC50
U251 = assay: as above; details: Homo sapiens; for GI50: U-251; for CC50: U-251, read-out: LC50
A549/ATCC = assay: NCI growth inhibition and cytotoxicity screen, Lung Cancer panel; details: Homo sapiens; for GI50: A549; for CC50: A549, read-out: LC50
HOP-62 = assay: as above; details: Homo sapiens; for GI50: HOP-62; for CC50: HOP-62, read-out: LC50
HOP-92 = assay: as above; details: Homo sapiens; for GI50: HOP-92; for CC50: HOP-92, read-out: LC50
NCI-H460 = assay: as above; details: Homo sapiens; for GI50: NCI-H460; for CC50: NCI-H460, read-out: LC50
HCC-2998 = assay: NCI growth inhibition and cytotoxicity screen, Colon Cancer panel; details: Homo sapiens; for GI50: HCC 2998; for CC50: HCC 2998, read-out: LC50
HCT-116 = assay: as above; details: Homo sapiens; for GI50: HCT-116; for CC50: HCT-116, read-out: LC50
HCT-15 = assay: as above; details: Homo sapiens; for GI50: HCT-15; for CC50: HCT-15, read-out: LC50
SW-620 = assay: as above; details: Homo sapiens; for GI50: SW-620; for CC50: SW-620, read-out: LC50
RXF 393 = assay: NCI growth inhibition and cytotoxicity screen, Renal Cancer panel; details: Homo sapiens; for GI50: RXF 393; for CC50: RXF 393, read-out: LC50
SN12C = assay: as above; details: Homo sapiens; for CC50: read-out: LC50
HS 578T = assay: NCI growth inhibition and cytotoxicity screen, Breast Cancer panel; details: Homo sapiens; for CC50: read-out: LC50
OVCAR-4 = assay: NCI growth inhibition and cytotoxicity screen, Ovarian Cancer panel; details: Homo sapiens; for GI50: OVCAR-4; for CC50: OVCAR-4, read-out: LC50
OVCAR-8 = assay: as above; details: Homo sapiens; for GI50: OVCAR-8; for CC50: OVCAR-8, read-out: LC50
SK-OV-3 = assay: as above; details: Homo sapiens; for GI50: SK-OV-3; for CC50: SK-OV-3, read-out: LC50
PC-3 = assay: NCI growth inhibition and cytotoxicity screen, Prostate Cancer panel; details: Homo sapiens; for GI50: PC-3; for CC50: PC-3, read-out: LC50
DU-145 = assay: as above; details: Homo sapiens; for GI50: DU-145; for CC50: DU-145, read-out: LC50
NCI-H522 = assay: NCI growth inhibition and cytotoxicity screen, Lung Cancer panel; assay type: cell-based; details: Homo sapiens, Table 2, cell line NCI-H522 (Lung Cancer)
[1] = system: full panel of 60 different cancer cell lines; assay: NCI five dose screen, full panel summary; assay type: cell-based, human; details: for GI50: Homo sapiens

Question: How did the GI50 (MDA-MB-468) turn out when COc1cc(/C(C#N)=C\c2cc3ccccc3s2)cc(OC)c1OC [Formula (I)(a)] was run?
Answer: < 0.01 µM

Question: And the CC50 (MDA-MB-468)?
Answer: > 100 µM

Question: And the GI50 (SR)?
Answer: < 0.01 µM

Question: And the CC50 (SR; read-out: LC50)?
Answer: > 100 µM

Question: What about the GI50 (M14) of the same compound?
Answer: < 0.01 µM

Question: What about the CC50 (M14) of the same compound?
Answer: > 100 µM

Question: And the GI50 (SK-MEL-5)?
Answer: < 0.01 µM

Question: And the CC50 (SK-MEL-5)?
Answer: > 100 µM

Question: What about the GI50 (UACC-257) of the same compound?
Answer: < 0.01 µM

Question: And the CC50 (UACC-257)?
Answer: > 100 µM

Question: And the GI50 (UACC-62)?
Answer: < 0.01 µM

Question: What about the CC50 (UACC-62) of the same compound?
Answer: > 100 µM

Question: What about the GI50 (SF-268) of the same compound?
Answer: < 0.01 µM

Question: And the CC50 (SF-268)?
Answer: > 100 µM

Question: And the GI50 (SNB-19)?
Answer: 0.0391 µM

Question: What about the CC50 (SNB-19) of the same compound?
Answer: > 100 µM

Question: What about the GI50 (SNB-75) of the same compound?
Answer: < 0.01 µM

Question: What about the CC50 (SNB-75) of the same compound?
Answer: > 100 µM

Question: What about the GI50 (U251) of the same compound?
Answer: < 0.01 µM

Question: What about the CC50 (U251) of the same compound?
Answer: > 100 µM

Question: What about the GI50 (A549/ATCC) of the same compound?
Answer: < 0.01 µM

Question: What about the CC50 (A549/ATCC) of the same compound?
Answer: > 100 µM

Question: What about the GI50 (HOP-62) of the same compound?
Answer: < 0.01 µM

Question: And the CC50 (HOP-62)?
Answer: > 100 µM

Question: And the GI50 (HOP-92)?
Answer: < 0.01 µM

Question: And the CC50 (HOP-92)?
Answer: > 100 µM

Question: And the GI50 (NCI-H460)?
Answer: < 0.01 µM

Question: And the CC50 (NCI-H460)?
Answer: > 100 µM

Question: And the GI50 (HCC-2998)?
Answer: 0.0192 µM

Question: And the CC50 (HCC-2998)?
Answer: > 100 µM

Question: What about the GI50 (HCT-116) of the same compound?
Answer: < 0.01 µM

Question: What about the CC50 (HCT-116) of the same compound?
Answer: > 100 µM

Question: What about the GI50 (HCT-15) of the same compound?
Answer: < 0.01 µM

Question: What about the CC50 (HCT-15) of the same compound?
Answer: > 100 µM

Question: What about the GI50 (SW-620) of the same compound?
Answer: < 0.01 µM

Question: And the CC50 (SW-620)?
Answer: > 100 µM

Question: And the GI50 (RXF 393)?
Answer: < 0.01 µM

Question: What about the CC50 (RXF 393) of the same compound?
Answer: > 100 µM

Question: And the GI50 (SN12C)?
Answer: < 0.01 µM

Question: And the CC50 (SN12C)?
Answer: > 100 µM

Question: And the GI50 (HS 578T)?
Answer: < 0.01 µM

Question: What about the CC50 (HS 578T) of the same compound?
Answer: > 100 µM

Question: And the GI50 (OVCAR-4)?
Answer: < 0.01 µM

Question: What about the CC50 (OVCAR-4) of the same compound?
Answer: > 100 µM

Question: And the GI50 (OVCAR-8)?
Answer: < 0.01 µM

Question: And the CC50 (OVCAR-8)?
Answer: > 100 µM

Question: And the GI50 (SK-OV-3)?
Answer: < 0.01 µM

Question: What about the CC50 (SK-OV-3) of the same compound?
Answer: > 100 µM

Question: And the GI50 (PC-3)?
Answer: < 0.01 µM

Question: What about the CC50 (PC-3) of the same compound?
Answer: > 100 µM

Question: And the GI50 (DU-145)?
Answer: < 0.01 µM

Question: What about the CC50 (DU-145) of the same compound?
Answer: > 100 µM

Question: Which GI50 (NCI-H522) does the source give for COc1cc(/C(C#N)=C/c2ccc3ccccc3n2)cc(OC)c1OC [PNR-4-90, (Z)-3-(quinolin-2-yl)-2-(3,4,5-trimethoxyphenyl)acrylonitrile] here?
Answer: 0.0372 µM

Question: What about the CC50 (NCI-H522; read-out: LC50 (the source's name)) of the same compound?
Answer: > 100 µM

Question: What about the GI50 ([1]; range over the potently inhibited cell lines, read-out: GI50 ranging (potently inhibited cancer cell lines)) of the same compound?
Answer: 0.033 to 0.943 µM

Question: And the GI50 ([1]; read-out: average GI50 value on all the cancer cell lines)?
Answer: 0.4 µM

Question: And the “potent growth inhibition on % of the cancer cell lines” value ([1]; share of the cancer cell lines potently inhibited)?
Answer: 91%

Question: What about the GI50 (MDA-MB-468) of the same compound?
Answer: 0.243 µM

Question: What about the CC50 (MDA-MB-468) of the same compound?
Answer: > 100 µM

Question: And the GI50 (M14)?
Answer: 0.173 µM

Question: What about the CC50 (M14) of the same compound?
Answer: > 100 µM

Question: And the GI50 (SK-MEL-5)?
Answer: 0.243 µM

Question: And the CC50 (SK-MEL-5)?
Answer: > 100 µM

Question: What about the GI50 (UACC-257) of the same compound?
Answer: 0.761 µM

Question: What about the CC50 (UACC-257) of the same compound?
Answer: > 100 µM

Question: What about the GI50 (UACC-62) of the same compound?
Answer: 0.092 µM

Question: And the CC50 (UACC-62)?
Answer: > 100 µM

Question: And the GI50 (SF-268)?
Answer: 0.835 µM

Question: What about the CC50 (SF-268) of the same compound?
Answer: > 100 µM

Question: What about the GI50 (SNB-19) of the same compound?
Answer: 0.578 µM

Question: And the CC50 (SNB-19)?
Answer: > 100 µM

Question: What about the GI50 (SNB-75) of the same compound?
Answer: 0.182 µM

Question: What about the CC50 (SNB-75) of the same compound?
Answer: 98.8 µM

Question: What about the GI50 (U251) of the same compound?
Answer: 0.355 µM

Question: What about the CC50 (U251) of the same compound?
Answer: 90.5 µM

Question: And the GI50 (A549/ATCC)?
Answer: 0.375 µM

Question: And the CC50 (A549/ATCC)?
Answer: > 100 µM

Question: What about the GI50 (HOP-62) of the same compound?
Answer: 0.567 µM

Question: What about the CC50 (HOP-62) of the same compound?
Answer: > 100 µM

Question: What about the GI50 (HOP-92) of the same compound?
Answer: 0.736 µM

Question: And the CC50 (HOP-92)?
Answer: > 100 µM

Question: And the GI50 (NCI-H460)?
Answer: 0.361 µM

Question: And the CC50 (NCI-H460)?
Answer: > 100 µM

Question: What about the GI50 (HCC-2998) of the same compound?
Answer: 0.61 µM

Question: What about the CC50 (HCC-2998) of the same compound?
Answer: > 100 µM

Question: And the GI50 (HCT-116)?
Answer: 0.234 µM

Question: What about the CC50 (HCT-116) of the same compound?
Answer: > 100 µM

Question: What about the GI50 (HCT-15) of the same compound?
Answer: 0.319 µM

Question: What about the CC50 (HCT-15) of the same compound?
Answer: > 100 µM

Question: And the GI50 (SW-620)?
Answer: 0.164 µM

Question: And the CC50 (SW-620)?
Answer: > 100 µM

Question: What about the GI50 (RXF 393) of the same compound?
Answer: 0.271 µM

Question: And the CC50 (RXF 393)?
Answer: > 100 µM

Question: And the GI50 (SN12C)?
Answer: 0.627 µM

Question: What about the CC50 (SN12C) of the same compound?
Answer: > 100 µM

Question: What about the GI50 (HS 578T) of the same compound?
Answer: 0.689 µM

Question: And the CC50 (HS 578T)?
Answer: > 100 µM

Question: And the GI50 (OVCAR-4)?
Answer: 1.43 µM

Question: What about the CC50 (OVCAR-4) of the same compound?
Answer: > 100 µM

Question: What about the GI50 (OVCAR-8) of the same compound?
Answer: 0.446 µM

Question: What about the CC50 (OVCAR-8) of the same compound?
Answer: > 100 µM

Question: And the GI50 (SK-OV-3)?
Answer: 0.524 µM

Question: What about the CC50 (SK-OV-3) of the same compound?
Answer: > 100 µM

Question: And the GI50 (PC-3)?
Answer: 0.348 µM

Question: What about the CC50 (PC-3) of the same compound?
Answer: > 100 µM

Question: And the GI50 (DU-145)?
Answer: 0.446 µM

Question: And the CC50 (DU-145)?
Answer: > 100 µM
